Experimental data published in the supplement of paper PMC10307832.

How the values were obtained:
Test in all cases: relative viability (nuclei count vs DMSO), 5 days (fraction); higher = more cells survive
[1] = compound: Cc1ccc(Nc2nccc(N(C)c3ccc4c(C)n(C)nc4c3)n2)cc1S(N)(=O)=O [Pazopanib] + C[C@]1(O)C[C@@H](c2nc(-c3ccc4ccc(-c5ccccc5)nc4c3)c3c(N)nccn32)C1 [Linsitinib] (partner 1 µM)
Procedure, shortened: (§1)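 Lung cancer cell lines, seeded in 1536-well plates, were treated the following day by pin tool with a single drug or with five library-drug doses (not always all listed) in √10 steps on top of a fixed anchor-drug dose. Cells were fixed and nuclei stained in one step after 5 days, and nuclei were counted. Relative viability is the nuclei count for treated wells divided by that for vehicle wells, reported as medians of duplicate plates.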

[2] = compound: Cc1ccc(C(=O)Nc2ccc(CN3CCN(C)CC3)c(C(F)(F)F)c2)cc1C#Cc1cnc2cccnn12 [Ponatinib] + O=C(CCCCCCC(=O)Nc1ccccc1)NO [Vorinostat] (partner 1 µM)
Procedure, shortened: as §1

[3] = compound: Cc1ccc(Nc2nccc(N(C)c3ccc4c(C)n(C)nc4c3)n2)cc1S(N)(=O)=O [Pazopanib] + CC1(C)CCC(c2ccc(Cl)cc2)=C(CN2CCN(c3ccc(C(=O)NS(=O)(=O)c4ccc(N[C@H](CCN5CCOCC5)CSc5ccccc5)c(S(=O)(=O)C(F)(F)F)c4)cc3)CC2)C1 [Navitoclax] (partner 0.5 µM)
Procedure, shortened: as §1

[4] = compound: Cc1ccc(C(=O)Nc2ccc(CN3CCN(C)CC3)c(C(F)(F)F)c2)cc1C#Cc1cnc2cccnn12 [Ponatinib] + COc1cccc2cc(-c3nc([C@H]4CC[C@H](C(=O)O)CC4)n4ncnc(N)c34)[nH]c12 [OSI-027] (partner 0.5 µM)
Procedure, shortened: as §1

Cell Line	relative viability ([1]; first compound 0.01 µM)	relative viability ([1]; first compound 0.03162 µM)	relative viability ([1]; first compound 0.1 µM)	relative viability ([1]; first compound 0.3162 µM)	relative viability ([1]; first compound 1 µM)	relative viability ([2]; first compound 0.002 µM)	relative viability ([2]; first compound 0.006325 µM)	relative viability ([2]; first compound 0.06325 µM)	relative viability ([2]; first compound 0.2 µM)	relative viability ([3]; first compound 0.01 µM)	relative viability ([3]; first compound 0.03162 µM)	relative viability ([3]; first compound 0.1 µM)	relative viability ([3]; first compound 0.3162 µM)	relative viability ([3]; first compound 1 µM)	relative viability ([4]; first compound 0.002 µM)	relative viability ([4]; first compound 0.006325 µM)	relative viability ([4]; first compound 0.06325 µM)	relative viability ([4]; first compound 0.2 µM)
SK-MES-1	0.983	1.01	1.12	1.15	1.02	0.999	1.08	1.36	1.08	1.29	1.32	1.42	1.3	1.15	0.566	0.653	0.717	0.537
SW 1573	0.716	0.798	0.817	0.935	1.01	0.564	0.737	0.835	0.575	1.16	1.06	1.02	1.2	1.28	0.567	0.483	0.718	0.522
